Experimental data published in patent publication US20230085307A1, “PYRIDAZINONE COMPOUND AND HERBICIDE” (NISSAN CHEMICAL CORPORATION, priority 2019, published 2023).

Key:
[1] = tested on: lambsquarters; test: Test Example 4: herbicidal effect by soil treatment (Table 19, symbol O); type: in vivo, lambsquarters (Chenopodium album)
How it was run: (§1)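 In this soil treatment, the formulated compound reached the seeds only through the soil: seeds were buried about 1.5 cm deep in sterilized diluvial soil, then the diluted emulsion was sprayed over the surface. After three weeks at 25° C. to 30° C. in a greenhouse, effects were graded on criteria from an earlier test.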

[2] = tested on: southern crabgrass; test: Test Example 4: herbicidal effect by soil treatment (Table 19, symbol F); type: in vivo, southern crabgrass (Digitaria ciliaris)
How it was run: as §1

[3] = tested on: false cleavers; test: Test Example 5: herbicidal effect by foliage application, plastic box (Table 20, symbol Q); type: in vivo, false cleavers (Galium spurium); conditions: foliage application, 214 g/ha, three weeks after application
How it was run: (§2)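 Plants were sown into sterilized diluvial soil under about 1.5 cm cover and kept in a greenhouse at 25° C. to 30° C. Fourteen days on, foliage received an even spray of the diluted emulsion. Herbicidal or crop effect was judged three weeks afterwards.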

[4] = tested on: barnyard grass; test: Test Example 5: herbicidal effect by foliage application, plastic box (Table 20, symbol H); type: in vivo, barnyard grass (Echinochloa crus-galli); conditions: foliage application, three weeks after application
How it was run: as §2

[5] = tested on: blackgrass; test: Test Example 5: herbicidal effect by foliage application, plastic box (Table 20, symbol J); type: in vivo, blackgrass (Alopecurus myosuroides); conditions: foliage application, three weeks after application
How it was run: as §2

[6] = tested on: wild oat; test: Test Example 5: herbicidal effect by foliage application, plastic box (Table 20, symbol I); type: in vivo, wild oat (Avena fatua); conditions: foliage application, three weeks after application
How it was run: as §2

[7] = tested on: Chinese sprangletop; test: Test Example 3: herbicidal effect by foliage application, Wagner pot (Table 18, symbol D); type: in vivo, chinese sprangletop (Leptochloa chinensis)
How it was run: (§3)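 Plants were sown in alluvial soil held under 0.1–0.5 cm standing water and grown 14 days in a greenhouse at 25–30 °C. An emulsifiable formulation, water-diluted to the set dose, was then sprayed onto the foliage, and effects were scored three weeks later using previously defined criteria.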

[8] = tested on: wild oat; test: Test Example 4: herbicidal effect by soil treatment (Table 19, symbol I); type: in vivo, wild oat (Avena fatua)
How it was run: as §1

[9] = tested on: directly sowed rice; test: Test Example 3: effect on crop by foliage application, Wagner pot (Table 18, symbol b); type: in vivo
How it was run: as §3

[10] = tested on: beet; test: Test Example 5: effect on crop by foliage application, plastic box (Table 20, symbol f); type: in vivo; conditions: three weeks after application
How it was run: as §2

[11] = tested on: false cleavers; test: Test Example 4: herbicidal effect by soil treatment (Table 19, symbol Q); type: in vivo, false cleavers (Galium spurium); conditions: amount of applied herbicide 214 g/ha
How it was run: as §1

[12] = tested on: oval-leafed pondweed; test: Test Example 1: herbicidal activity, application before weed generation under submerged conditions (Table 16, symbol C); type: in vivo, oval-leafed pondweed (Monochoria vaginalis)
How it was run: (§4)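 Submerged Wagner pots (alluvial soil, 4 cm water) sown with weed seeds and planted with 2.5-leaf rice seedlings; emulsifiable concentrate diluted in water applied to water surface on sowing day. Held in greenhouse at 25-30 °C; injury scored 0-5 by herbicidal rate after three weeks.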

[13] = tested on: velvetleaf; test: Test Example 5: herbicidal effect by foliage application, plastic box (Table 20, symbol M); type: in vivo, velvetleaf (Abutilon theophrasti); conditions: foliage application, three weeks after application
How it was run: as §2

[14] = tested on: barnyard grass; test: Test Example 4: herbicidal effect by soil treatment (Table 19, symbol H); type: in vivo, barnyard grass (Echinochloa crus-galli)
How it was run: as §1

[15] = tested on: blackgrass; test: Test Example 4: herbicidal effect by soil treatment (Table 19, symbol J); type: in vivo, blackgrass (Alopecurus myosuroides)
How it was run: as §1

[16] = tested on: Japanese bulrush; test: Test Example 1: herbicidal activity, application before weed generation under submerged conditions (Table 16, symbol B); type: in vivo, Japanese bulrush (Schoenoplectus juncoides)
How it was run: as §4

[17] = tested on: chickweed; test: Test Example 5: herbicidal effect by foliage application, plastic box (Table 20, symbol P); type: in vivo, common chickweed (Stellaria media); conditions: foliage application, three weeks after application
How it was run: as §2

[18] = tested on: wheat; test: Test Example 4: effect on crop by soil treatment (Table 19, symbol e); type: in vivo
How it was run: as §1

[19] = tested on: redroot pigweed; test: Test Example 4: herbicidal effect by soil treatment (Table 19, symbol N); type: in vivo, redroot pigweed (Amaranthus retroflexus)
How it was run: as §1

[20] = tested on: velvetleaf; test: Test Example 4: herbicidal effect by soil treatment (Table 19, symbol M); type: in vivo, velvetleaf (Abutilon theophrasti)
How it was run: as §1

[21] = tested on: wheat; test: Test Example 5: effect on crop by foliage application, plastic box (Table 20, symbol e); type: in vivo; conditions: three weeks after application
How it was run: as §2

[22] = tested on: redroot pigweed; test: Test Example 5: herbicidal effect by foliage application, plastic box (Table 20, symbol N); type: in vivo, redroot pigweed (Amaranthus retroflexus); conditions: foliage application, three weeks after application
How it was run: as §2

[23] = amount of applied herbicide 214 g/ha
[24] = amount of applied herbicide 320 g/ha

COc1ccc2c(-c3c(O)c(C)nn(C)c3=O)c(-c3ccccc3OC)sc2c1 [Compound No. 3-065, 5-hydroxy-4-(6-methoxy-2-(2-methoxyphenyl)benzo[b]thiophen-3-yl)-2,6-dimethylpyridazin-3(2H)-one]
O: lambsquarters, herbicidal effect grade [1, 23]: 4 (Herbicidal rate of 70% or more and less than 90%) | F: southern crabgrass, herbicidal effect grade [2, 23]: 3 (Herbicidal rate of 40% or more and less than 70%) | Q: false cleavers, herbicidal effect grade [3]: 5 (Herbicidal rate of 90% or more (almost completely withered)) | H: barnyard grass, herbicidal effect grade ([4]; 214 g/ha): 5 (Herbicidal rate of 90% or more (almost completely withered)) | J: blackgrass, herbicidal effect grade ([5]; 214 g/ha): 5 (Herbicidal rate of 90% or more (almost completely withered)) | I: wild oat, herbicidal effect grade ([6]; 214 g/ha): 4 (Herbicidal rate of 70% or more and less than 90%) | herbicidal effect on Chinese sprangletop (D) ([7]; 214 g/ha): 2 (Herbicidal rate of 20% or more and less than 40%) | I: wild oat, herbicidal effect grade [8, 23]: 2 (Herbicidal rate of 20% or more and less than 40%) | melting point: 243 to 244 °C | effect on directly sowed rice (b) ([9]; 214 g/ha): 1 (Herbicidal rate of 5% or more and less than 20%) | f: beet, effect on crop grade ([10]; 214 g/ha): 5 (Herbicidal rate of 90% or more (almost completely withered)) | Q: false cleavers, herbicidal effect grade [11]: 4 (Herbicidal rate of 70% or more and less than 90%) | Herbicidal effect, C: oval-leafed pondweed [12, 23]: 3 (Herbicidal rate of 40% or more and less than 70%) | M: velvetleaf, herbicidal effect grade ([13]; 214 g/ha): 5 (Herbicidal rate of 90% or more (almost completely withered)) | H: barnyard grass, herbicidal effect grade [14, 23]: 5 (Herbicidal rate of 90% or more (almost completely withered)) | J: blackgrass, herbicidal effect grade [15, 23]: 3 (Herbicidal rate of 40% or more and less than 70%) | Herbicidal effect, B: Japanese bulrush [16, 23]: 3 (Herbicidal rate of 40% or more and less than 70%) | P: chickweed, herbicidal effect grade ([17]; 214 g/ha): 5 (Herbicidal rate of 90% or more (almost completely withered)) | e: wheat, effect on crop grade [18, 23]: 0 (Herbicidal rate of 5% or less (almost no effect)) | N: redroot pigweed, herbicidal effect grade [19, 23]: 4 (Herbicidal rate of 70% or more and less than 90%) | M: velvetleaf, herbicidal effect grade [20, 23]: 0 (Herbicidal rate of 5% or less (almost no effect)) | e: wheat, effect on crop grade ([21]; 214 g/ha): 2 (Herbicidal rate of 20% or more and less than 40%) | N: redroot pigweed, herbicidal effect grade ([22]; 214 g/ha): 3 (Herbicidal rate of 40% or more and less than 70%)

COc1ccc2c(-c3c(O)c(Cl)nn(C)c3=O)c(-c3ccccc3OC)sc2c1 [Compound No. 3-088, 6-chloro-5-hydroxy-4-(6-methoxy-2-(2-methoxyphenyl)benzo[b]thiophen-3-yl)-2-methylpyridazin-3(2H)-one]
O: lambsquarters, herbicidal effect grade [1, 24]: 5 (Herbicidal rate of 90% or more (almost completely withered)) | F: southern crabgrass, herbicidal effect grade [2, 24]: 4 (Herbicidal rate of 70% or more and less than 90%) | H: barnyard grass, herbicidal effect grade ([4]; 320 g/ha): 4 (Herbicidal rate of 70% or more and less than 90%) | J: blackgrass, herbicidal effect grade ([5]; 320 g/ha): 3 (Herbicidal rate of 40% or more and less than 70%) | I: wild oat, herbicidal effect grade ([6]; 320 g/ha): 3 (Herbicidal rate of 40% or more and less than 70%) | herbicidal effect on Chinese sprangletop (D) ([7]; 320 g/ha): 4 (Herbicidal rate of 70% or more and less than 90%) | I: wild oat, herbicidal effect grade [8, 24]: 0 (Herbicidal rate of 5% or less (almost no effect)) | melting point: 209 to 211 °C | effect on directly sowed rice (b) ([9]; 320 g/ha): 0 (Herbicidal rate of 5% or less (almost no effect)) | f: beet, effect on crop grade ([10]; 320 g/ha): 5 (Herbicidal rate of 90% or more (almost completely withered)) | Herbicidal effect, C: oval-leafed pondweed [12, 24]: 5 (Herbicidal rate of 90% or more (almost completely withered)) | M: velvetleaf, herbicidal effect grade ([13]; 320 g/ha): 4 (Herbicidal rate of 70% or more and less than 90%) | H: barnyard grass, herbicidal effect grade [14, 24]: 5 (Herbicidal rate of 90% or more (almost completely withered)) | J: blackgrass, herbicidal effect grade [15, 24]: 0 (Herbicidal rate of 5% or less (almost no effect)) | Herbicidal effect, B: Japanese bulrush [16, 24]: 5 (Herbicidal rate of 90% or more (almost completely withered)) | P: chickweed, herbicidal effect grade ([17]; 320 g/ha): 5 (Herbicidal rate of 90% or more (almost completely withered)) | e: wheat, effect on crop grade [18, 24]: 0 (Herbicidal rate of 5% or less (almost no effect)) | N: redroot pigweed, herbicidal effect grade [19, 24]: 5 (Herbicidal rate of 90% or more (almost completely withered)) | M: velvetleaf, herbicidal effect grade [20, 24]: 5 (Herbicidal rate of 90% or more (almost completely withered)) | e: wheat, effect on crop grade ([21]; 320 g/ha): 0 (Herbicidal rate of 5% or less (almost no effect)) | N: redroot pigweed, herbicidal effect grade ([22]; 320 g/ha): 4 (Herbicidal rate of 70% or more and less than 90%)

COc1ccccc1-c1sc2cc(OCC(F)(F)F)ccc2c1-c1c(O)c(C)nn(C)c1=O [Compound No. 3-116, 5-hydroxy-4-(2-(2-methoxyphenyl)-6-(2,2,2-trifluoroethoxy)benzo[b]thiophen-3-yl)-2,6-di methylpyridazin-3 (2H)-one]
O: lambsquarters, herbicidal effect grade [1, 24]: 5 (Herbicidal rate of 90% or more (almost completely withered)) | F: southern crabgrass, herbicidal effect grade [2, 24]: 5 (Herbicidal rate of 90% or more (almost completely withered)) | H: barnyard grass, herbicidal effect grade ([4]; 320 g/ha): 5 (Herbicidal rate of 90% or more (almost completely withered)) | J: blackgrass, herbicidal effect grade ([5]; 320 g/ha): 5 (Herbicidal rate of 90% or more (almost completely withered)) | I: wild oat, herbicidal effect grade ([6]; 320 g/ha): 5 (Herbicidal rate of 90% or more (almost completely withered)) | herbicidal effect on Chinese sprangletop (D) ([7]; 320 g/ha): 5 (Herbicidal rate of 90% or more (almost completely withered)) | I: wild oat, herbicidal effect grade [8, 24]: 3 (Herbicidal rate of 40% or more and less than 70%) | melting point: 216 to 218 °C | effect on directly sowed rice (b) ([9]; 320 g/ha): 5 (Herbicidal rate of 90% or more (almost completely withered)) | f: beet, effect on crop grade ([10]; 320 g/ha): 5 (Herbicidal rate of 90% or more (almost completely withered)) | Herbicidal effect, C: oval-leafed pondweed [12, 24]: 5 (Herbicidal rate of 90% or more (almost completely withered)) | M: velvetleaf, herbicidal effect grade ([13]; 320 g/ha): 5 (Herbicidal rate of 90% or more (almost completely withered)) | H: barnyard grass, herbicidal effect grade [14, 24]: 5 (Herbicidal rate of 90% or more (almost completely withered)) | J: blackgrass, herbicidal effect grade [15, 24]: 4 (Herbicidal rate of 70% or more and less than 90%) | Herbicidal effect, B: Japanese bulrush [16, 24]: 5 (Herbicidal rate of 90% or more (almost completely withered)) | P: chickweed, herbicidal effect grade ([17]; 320 g/ha): 5 (Herbicidal rate of 90% or more (almost completely withered)) | e: wheat, effect on crop grade [18, 24]: 1 (Herbicidal rate of 5% or more and less than 20%) | N: redroot pigweed, herbicidal effect grade [19, 24]: 5 (Herbicidal rate of 90% or more (almost completely withered)) | M: velvetleaf, herbicidal effect grade [20, 24]: 4 (Herbicidal rate of 70% or more and less than 90%) | e: wheat, effect on crop grade ([21]; 320 g/ha): 3 (Herbicidal rate of 40% or more and less than 70%) | N: redroot pigweed, herbicidal effect grade ([22]; 320 g/ha): 5 (Herbicidal rate of 90% or more (almost completely withered))
